The conditions of data set [1]: currently employed in medicine; cited from earlier work.
Data set [2] has as its system arrhythmia induced by an intravenous administration of calcium chloride. The data set can be described thus: Antiarrhythmic activity on a model of arrhythmia induced by intravenous calcium chloride (antagonism to calcium) in mice. Type of data set: in vivo. Particulars: white mice, 20-40 minutes before. The method, boiled down:
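Urethane-anaesthetised (1,200 mg/kg i.p.) white mice of both sexes, 18-25 g, with lead II ECG; 2% CaCl2 infused into the tail vein at 0.01 ml per 2 sec. Doses of CaCl2 producing arrhythmia and heart arrest were determined. Test compounds were given i.p. 20-40 min before infusion.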

A further data set deals with white mice. Put plainly: in vivo. The method, boiled down:
(§1)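 Acute toxicity in white mice of 20-25 g, with compounds given intraperitoneally as aqueous solutions or Twin-80 suspensions. Animals observed for 10 days.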

The next data set in a line: in vivo. To be noted: mouse, in vivo, ip. The method, boiled down: as §1
[3] abbreviates: white mice, intraperitoneal, relative to quinidine.

Regarding `C=C[C@H]1C[N@@]2CC[C@H]1C[C@@H]2[C@@H](O)c1ccnc2ccc(OC)cc12` [Quinidine, quinidine, reference compound], in data set [1], the “acute toxicity (in words, background)” value is on record as “high acute toxicity”. In data set [2] (intraperitoneal dose 3 mg/kg), the “Dose of calcium chloride causing arrythmia in animals under experiment” value is listed as 126,9 mg/kg and the “Dose of calcium chloride causing death in animals under experiment” value (“Dose of calcium chloride causing death” for short) is reported as 136,0 mg/kg. Moreover, in data set [2] (intraperitoneal dose 10 mg/kg), the “Dose of calcium chloride causing arrythmia in animals under experiment” value is reported as 120,8 mg/kg and the “Dose of calcium chloride causing death” value was 133,5 mg/kg. Besides, the “Relative toxisity to quinidine” value in the data set with white mice (setting [3]) was determined as 1. Also, the 50% lethal dose (LD50) at 240 h in the data set “in vivo” was determined as 156 mg/kg.

For `CCN(CC)CCNC(=O)c1ccc(N)cc1` [Procaineamide, procaine amide, reference compound], the “acute toxicity (in words, background)” value in data set [1] is reported as “high acute toxicity”. Moreover, in data set [2] (intraperitoneal dose 10 mg/kg), the “Dose of calcium chloride causing arrythmia in animals under experiment” value is on record as 116,0 mg/kg and the “Dose of calcium chloride causing death” value is listed as 120,0 mg/kg. For the same compound, in data set [2] (intraperitoneal dose 30 mg/kg), the “Dose of calcium chloride causing arrythmia in animals under experiment” value is recorded as 127,0 mg/kg and the “Dose of calcium chloride causing death” value is on record as 138,0 mg/kg. This compound also came in with an LD50 at 240 h in “in vivo” of 290 mg/kg.

Turning to `CNC(=O)N(CCC#N)N(C)C` [I-21, 3-(2,2-dimethyl-1-methylcarbamoylhydrazino)propionitrile], the “Dose of calcium chloride causing arrythmia in animals under experiment” value is on record as 87,5 mg/kg in data set [2] (intraperitoneal dose 5 mg/kg) and 113,6 mg/kg in data set [2] (intraperitoneal dose 25 mg/kg). The results for the “Dose of calcium chloride causing death” value in data set [2] (intraperitoneal dose 5 mg/kg) and in data set [2] (intraperitoneal dose 25 mg/kg) were 111,5 mg/kg and 128,0 mg/kg, respectively. In the data set on white mice (mouse, in vivo, ip, 14400 min), the “Relative toxisity to quinidine” value is 11,5. The 50% lethal dose (LD50) at 240 h in the data set “in vivo” came out at 1800 mg/kg.

With `COC(=O)CCN(C(=O)c1ccccc1COC(=O)c1ccccc1)N(C)C` [I-33], the “Dose of calcium chloride causing arrythmia in animals under experiment” value is 87,5 mg/kg in data set [2] (intraperitoneal dose 5 mg/kg) and 111,0 mg/kg in data set [2] (intraperitoneal dose 15 mg/kg). Besides, the “Dose of calcium chloride causing death” value in data set [2] (intraperitoneal dose 5 mg/kg) was 108,6 mg/kg; in data set [2] (intraperitoneal dose 15 mg/kg) it was 132,5 mg/kg. For the same compound, in the data set with white mice (mouse, in vivo, ip, 14400 min), the “Relative toxisity to quinidine” value is 18,2. The LD50 at 240 h in “in vivo” stood at 2850 mg/kg.

Consider `COC(=O)C(C)CN(C(=O)c1ccc(Br)cc1)N(C)C` (stereo not shown) [I-41], for which, in data set [2] (intraperitoneal dose 5 mg/kg), the “Dose of calcium chloride causing arrythmia in animals under experiment” value is recorded as 90,6 mg/kg and the “Dose of calcium chloride causing death” value was 110,0 mg/kg. In data set [2] (intraperitoneal dose 15 mg/kg), the “Dose of calcium chloride causing arrythmia in animals under experiment” value is 102,5 mg/kg and the “Dose of calcium chloride causing death” value was 122,0 mg/kg. Besides, the “Relative toxisity to quinidine” value in the data set on white mice (setting [3]) is 15,5. In the data set “in vivo”, the median lethal dose (LD50) at 240 h was found to be 2430 mg/kg.

As for `CN(C)N(CCC#N)C(=S)Nc1ccccc1` [I-23, 3-(2,2-dimethyl-1-phenylthiocarbamoylhydrazino)propionitrile], the “Dose of calcium chloride causing arrythmia in animals under experiment” value in data set [2] (intraperitoneal dose 5 mg/kg) is on record as 86 mg/kg; in data set [2] (intraperitoneal dose 25 mg/kg), 117,7 mg/kg. Besides, the entries for the “Dose of calcium chloride causing death” value in data set [2] (intraperitoneal dose 5 mg/kg) and in data set [2] (intraperitoneal dose 25 mg/kg) were 101,3 mg/kg and 119,0 mg/kg, respectively. Besides, the “Relative toxisity to quinidine” value in the data set on white mice (mouse, in vivo, ip, 14400 min) is 10,7. Further, the 50% lethal dose (LD50) at 240 h in “in vivo” was determined as 1680 mg/kg.

Take `CN(C)N(CCC(N)=O)C(=O)CCO` [I-52, 3-(2,2-dimethyl-1-γ-hydroxypropanoylhydrazino)propionamide]: in data set [2] (intraperitoneal dose 5 mg/kg), the “Dose of calcium chloride causing arrythmia in animals under experiment” value was determined as 93 mg/kg and the “Dose of calcium chloride causing death” value is on record as 112,0 mg/kg. Further, in data set [2] (intraperitoneal dose 15 mg/kg), the “Dose of calcium chloride causing arrythmia in animals under experiment” value was 97,6 mg/kg and the “Dose of calcium chloride causing death” value is on record as 123,6 mg/kg. For the same compound, the “Relative toxisity to quinidine” value with white mice (mouse, in vivo, ip, 14400 min) is reported as > 19,2. Besides, the 50% lethal dose (LD50) at 240 h in the data set “in vivo” was > 3000 mg/kg.

On to `CN(C)N(CCC(N)=O)C(=O)c1ccccc1` [I-51, 3-(2,2-dimethyl-1-benzoylhydrazino)propionamide], for which the figures for the “Dose of calcium chloride causing arrythmia in animals under experiment” value in data set [2] (intraperitoneal dose 5 mg/kg) and in data set [2] (intraperitoneal dose 15 mg/kg) were 88,7 mg/kg and 93,5 mg/kg, respectively. Also, the entries for the “Dose of calcium chloride causing death” value in data set [2] (intraperitoneal dose 5 mg/kg) and in data set [2] (intraperitoneal dose 15 mg/kg) were 105,5 mg/kg and 112,0 mg/kg, respectively. Also, the “Relative toxisity to quinidine” value in the data set on white mice (mouse, in vivo, ip, 14400 min) is given as 20,1. The LD50 at 240 h in the data set “in vivo” was 3150 mg/kg.

For `CN(C)N(CCC#N)C(=O)c1ccccc1` [I-54, 3-(2,2-dimethyl-1-benzoylhydrazino)propionitrile], the “Dose of calcium chloride causing arrythmia in animals under experiment” value in data set [2] (intraperitoneal dose 5 mg/kg) is on record as 108,3 mg/kg; in data set [2] (intraperitoneal dose 15 mg/kg) it was 102,5 mg/kg. Moreover, the “Dose of calcium chloride causing death” value in data set [2] (intraperitoneal dose 5 mg/kg) is 130,0 mg/kg; in data set [2] (intraperitoneal dose 15 mg/kg), 133,0 mg/kg. The “Relative toxisity to quinidine” value in the data set on white mice (mouse, in vivo, ip, 14400 min) is 6,6. The LD50 at 240 h in the data set “in vivo” turned out to be 1030 mg/kg.

Regarding `C=CCNC(=S)N(CCC(N)=O)N(C)C` [I-18], in data set [2] (intraperitoneal dose 5 mg/kg), the “Dose of calcium chloride causing arrythmia in animals under experiment” value is 127 mg/kg and the “Dose of calcium chloride causing death” value is listed as 160,5 mg/kg. In data set [2] (intraperitoneal dose 15 mg/kg), the “Dose of calcium chloride causing arrythmia in animals under experiment” value is listed as 153 mg/kg and the “Dose of calcium chloride causing death” value is given as 168 mg/kg. In the data set on white mice (mouse, in vivo, ip, 14400 min), the “Relative toxisity to quinidine” value is given as 18,6. The compound also displayed an LD50 at 240 h in the data set “in vivo” of 2900 mg/kg.

For `COC(=O)CCN(C(=O)c1ccc(Br)cc1)N(C)C` [I-32, 3-(2,2-dimethyl-1-(4'-bromophenylcarbonyl)hydrazino)methylpropionate], the “Dose of calcium chloride causing arrythmia in animals under experiment” value in data set [2] (intraperitoneal dose 5 mg/kg) is recorded as 90,3 mg/kg; in data set [2] (intraperitoneal dose 15 mg/kg) it was 100,0 mg/kg. Besides, the figures for the “Dose of calcium chloride causing death” value in data set [2] (intraperitoneal dose 5 mg/kg) and in data set [2] (intraperitoneal dose 15 mg/kg) were 105,5 mg/kg and 110,0 mg/kg, respectively. In addition, the “Relative toxisity to quinidine” value with white mice (mouse, in vivo, ip, 14400 min) is on record as 10,7. In the data set “in vivo”, this compound came in with an LD50 at 240 h of 1680 mg/kg.

Regarding `COC(=O)CCN(C(=O)Nc1ccc(NC(=O)N(CCC(=O)OC)N(C)C)cc1)N(C)C` [I-4, 3-(2,2-dimethyl-1-p-/2-dimethylamino-2-methylpropionato-2'-yl-ureido-1-yl/anilinocarbanylhydrazino)-methylpropionate], in data set [2] (intraperitoneal dose 5 mg/kg), the “Dose of calcium chloride causing arrythmia in animals under experiment” value is reported as 86,0 mg/kg and the “Dose of calcium chloride causing death” value is listed as 110,0 mg/kg. Moreover, in data set [2] (intraperitoneal dose 25 mg/kg), the “Dose of calcium chloride causing arrythmia in animals under experiment” value is on record as 103,7 mg/kg and the “Dose of calcium chloride causing death” value is given as 115,0 mg/kg. Also, the “Relative toxisity to quinidine” value in the data set with white mice (mouse, in vivo, ip, 14400 min) is reported as 51,3. This compound yielded a median lethal dose (LD50) at 240 h in the data set “in vivo” of 8000 mg/kg.

In the case of `COC(=O)C(C)CN(C(=S)Nc1ccccc1)N(C)C` (stereo not shown) [I-14], in data set [2] (intraperitoneal dose 5 mg/kg), the “Dose of calcium chloride causing arrythmia in animals under experiment” value is recorded as 96,4 mg/kg and the “Dose of calcium chloride causing death” value is reported as 114,1 mg/kg. Besides, in data set [2] (intraperitoneal dose 15 mg/kg), the “Dose of calcium chloride causing arrythmia in animals under experiment” value is 85 mg/kg and the “Dose of calcium chloride causing death” value was 101,0 mg/kg. For the same compound, the “Relative toxisity to quinidine” value in the data set with white mice (mouse, in vivo, ip, 14400 min) is reported as 12,5. The compound also came in with an LD50 at 240 h in the data set “in vivo” of 1960 mg/kg.

As for `CCCCCCCCCCCCCCCCCC(=O)N(CCC(=O)OC)N(C)C` [I-28, 3-(2,2-dimethyl-1-octadecanoylhydrazino)methylpropionate], in data set [2] (intraperitoneal dose 5 mg/kg), the “Dose of calcium chloride causing arrythmia in animals under experiment” value is given as 90,1 mg/kg and the “Dose of calcium chloride causing death” value is 108 mg/kg. Further, in data set [2] (intraperitoneal dose 25 mg/kg), the “Dose of calcium chloride causing arrythmia in animals under experiment” value was 133,8 mg/kg and the “Dose of calcium chloride causing death” value turned out to be 143 mg/kg. In addition, the “Relative toxisity to quinidine” value with white mice (mouse, in vivo, ip, 14400 min) is 39,4. Moreover, the LD50 at 240 h in the data set “in vivo” turned out to be 6150 mg/kg.

In the case of `COC(=O)N(CCC(N)=O)N(C)C` [I-53, 3-(2,2-dimethyl-1methoxycarbonylhydrazino)propionamide], in data set [2] (intraperitoneal dose 5 mg/kg), the “Dose of calcium chloride causing arrythmia in animals under experiment” value is 98,5 mg/kg and the “Dose of calcium chloride causing death” value is 132,0 mg/kg. For the same compound, in data set [2] (intraperitoneal dose 15 mg/kg), the “Dose of calcium chloride causing arrythmia in animals under experiment” value is given as 121,0 mg/kg and the “Dose of calcium chloride causing death” value is 138,5 mg/kg. For the same compound, the “Relative toxisity to quinidine” value in the data set on white mice (setting [3]) is on record as 12,0. In the data set “in vivo”, this compound yielded an LD50 at 240 h of 1880 mg/kg.

Turning to `CCOC(=O)CCN(C(=O)c1ccc(Br)cc1)N(C)C` [I-46, 3-/2,2-dimethyl-1-(4'-bromobenzoyl)hydrazino/ethylpropionate], in data set [2] (intraperitoneal dose 5 mg/kg), the “Dose of calcium chloride causing arrythmia in animals under experiment” value was 98,0 mg/kg and the “Dose of calcium chloride causing death” value is 105,0 mg/kg. Also, in data set [2] (intraperitoneal dose 15 mg/kg), the “Dose of calcium chloride causing arrythmia in animals under experiment” value is listed as 100,0 mg/kg and the “Dose of calcium chloride causing death” value is recorded as 118,3 mg/kg. In addition, the “Relative toxisity to quinidine” value in the data set on white mice (mouse, in vivo, ip, 14400 min) was 9,6. In the data set “in vivo”, this compound came in with a median lethal dose (LD50) at 240 h of 1500 mg/kg.
